In ChEMBL document CHEMBL3991601, “The target landscape of clinical kinase drugs” (Science, 2017):
Active and inactive are the calls of the source. Rule as the data show it, for most assays here: actives have a measured Kd and inactives only a lower limit.

How the values were obtained:
[1] = target: Rho-associated protein kinase 2 (Homo sapiens, UniProt O75116)
[2] = target: T1, Serine/threonine-protein kinase D3 (Homo sapiens, UniProt O94806)
T1 sequence (O94806 whole entry): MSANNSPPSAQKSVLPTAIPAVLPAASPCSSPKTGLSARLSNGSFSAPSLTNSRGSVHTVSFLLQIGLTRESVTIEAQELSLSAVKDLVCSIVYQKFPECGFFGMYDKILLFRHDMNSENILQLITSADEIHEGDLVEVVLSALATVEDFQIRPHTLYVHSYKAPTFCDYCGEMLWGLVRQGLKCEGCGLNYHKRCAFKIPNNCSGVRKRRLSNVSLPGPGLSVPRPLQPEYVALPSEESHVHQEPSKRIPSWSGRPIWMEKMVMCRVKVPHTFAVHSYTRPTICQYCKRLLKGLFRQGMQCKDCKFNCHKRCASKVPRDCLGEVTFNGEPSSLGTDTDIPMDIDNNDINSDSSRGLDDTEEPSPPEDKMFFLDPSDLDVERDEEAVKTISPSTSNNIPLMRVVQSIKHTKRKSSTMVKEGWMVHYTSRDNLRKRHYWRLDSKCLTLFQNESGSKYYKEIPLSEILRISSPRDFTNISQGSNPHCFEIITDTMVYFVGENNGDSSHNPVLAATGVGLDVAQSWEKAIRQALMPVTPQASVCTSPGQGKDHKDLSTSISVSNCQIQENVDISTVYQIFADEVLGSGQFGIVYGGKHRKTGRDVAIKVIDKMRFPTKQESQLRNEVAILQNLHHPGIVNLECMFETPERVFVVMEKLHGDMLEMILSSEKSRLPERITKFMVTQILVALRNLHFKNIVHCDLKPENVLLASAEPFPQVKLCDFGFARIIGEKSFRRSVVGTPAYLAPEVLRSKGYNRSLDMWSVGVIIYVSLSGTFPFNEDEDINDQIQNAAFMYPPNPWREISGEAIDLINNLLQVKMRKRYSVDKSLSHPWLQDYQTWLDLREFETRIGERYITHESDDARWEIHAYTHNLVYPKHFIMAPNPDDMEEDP

[3] = target: Proto-oncogene tyrosine-protein kinase receptor Ret (Homo sapiens, UniProt P07949)
Chain of Proto-oncogene tyrosine-protein kinase receptor Ret (P07949 whole entry): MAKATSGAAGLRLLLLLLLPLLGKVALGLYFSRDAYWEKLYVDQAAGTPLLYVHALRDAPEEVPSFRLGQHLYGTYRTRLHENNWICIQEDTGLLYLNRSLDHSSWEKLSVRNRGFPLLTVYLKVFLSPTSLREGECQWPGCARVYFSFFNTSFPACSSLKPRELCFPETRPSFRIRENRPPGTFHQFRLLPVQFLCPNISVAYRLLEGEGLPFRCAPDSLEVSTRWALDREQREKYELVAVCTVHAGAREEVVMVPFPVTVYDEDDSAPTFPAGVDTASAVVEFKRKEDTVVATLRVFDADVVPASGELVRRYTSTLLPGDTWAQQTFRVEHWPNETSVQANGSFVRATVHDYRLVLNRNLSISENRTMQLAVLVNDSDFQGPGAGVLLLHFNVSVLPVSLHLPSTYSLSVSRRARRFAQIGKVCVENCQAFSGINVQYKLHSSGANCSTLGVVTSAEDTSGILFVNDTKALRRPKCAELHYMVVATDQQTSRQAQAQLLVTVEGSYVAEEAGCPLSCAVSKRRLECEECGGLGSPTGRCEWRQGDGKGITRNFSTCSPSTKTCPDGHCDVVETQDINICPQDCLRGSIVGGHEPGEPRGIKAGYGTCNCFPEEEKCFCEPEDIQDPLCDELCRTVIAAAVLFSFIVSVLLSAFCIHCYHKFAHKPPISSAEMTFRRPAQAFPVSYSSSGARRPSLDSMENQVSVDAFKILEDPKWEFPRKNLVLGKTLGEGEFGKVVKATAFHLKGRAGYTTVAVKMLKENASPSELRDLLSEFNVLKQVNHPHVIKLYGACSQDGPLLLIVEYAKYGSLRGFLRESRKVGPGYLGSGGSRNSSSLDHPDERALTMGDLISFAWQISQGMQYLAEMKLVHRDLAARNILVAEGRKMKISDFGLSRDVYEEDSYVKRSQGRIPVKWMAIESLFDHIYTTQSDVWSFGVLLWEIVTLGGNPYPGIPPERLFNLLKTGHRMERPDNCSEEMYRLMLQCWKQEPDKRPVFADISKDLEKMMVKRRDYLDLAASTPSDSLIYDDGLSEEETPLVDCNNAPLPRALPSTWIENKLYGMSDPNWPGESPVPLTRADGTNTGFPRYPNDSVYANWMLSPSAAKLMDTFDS

[4] = target: Tyrosine-protein kinase Lck (Homo sapiens, UniProt P06239)
Chain of Tyrosine-protein kinase Lck (P06239 whole entry): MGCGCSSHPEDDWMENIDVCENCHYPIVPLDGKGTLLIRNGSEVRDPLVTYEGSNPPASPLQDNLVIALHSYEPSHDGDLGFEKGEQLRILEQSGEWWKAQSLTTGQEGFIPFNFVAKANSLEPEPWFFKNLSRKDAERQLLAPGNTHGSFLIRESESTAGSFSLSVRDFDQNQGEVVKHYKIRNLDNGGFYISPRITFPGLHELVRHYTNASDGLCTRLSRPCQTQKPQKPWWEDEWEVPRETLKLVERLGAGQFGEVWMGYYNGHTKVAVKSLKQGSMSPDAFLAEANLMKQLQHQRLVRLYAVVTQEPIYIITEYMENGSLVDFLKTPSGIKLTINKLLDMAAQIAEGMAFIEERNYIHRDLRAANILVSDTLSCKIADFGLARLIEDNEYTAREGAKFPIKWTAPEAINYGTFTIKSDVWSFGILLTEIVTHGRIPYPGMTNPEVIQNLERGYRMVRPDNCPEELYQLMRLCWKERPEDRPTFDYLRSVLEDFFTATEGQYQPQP

[5] = target: Serine/threonine-protein kinase MRCK beta (Homo sapiens, UniProt Q9Y5S2)
[6] = target: Calcium/calmodulin-dependent protein kinase type II subunit delta (Homo sapiens, UniProt Q13557)
Chain of Calcium/calmodulin-dependent protein kinase type II subunit delta (Q13557 whole entry): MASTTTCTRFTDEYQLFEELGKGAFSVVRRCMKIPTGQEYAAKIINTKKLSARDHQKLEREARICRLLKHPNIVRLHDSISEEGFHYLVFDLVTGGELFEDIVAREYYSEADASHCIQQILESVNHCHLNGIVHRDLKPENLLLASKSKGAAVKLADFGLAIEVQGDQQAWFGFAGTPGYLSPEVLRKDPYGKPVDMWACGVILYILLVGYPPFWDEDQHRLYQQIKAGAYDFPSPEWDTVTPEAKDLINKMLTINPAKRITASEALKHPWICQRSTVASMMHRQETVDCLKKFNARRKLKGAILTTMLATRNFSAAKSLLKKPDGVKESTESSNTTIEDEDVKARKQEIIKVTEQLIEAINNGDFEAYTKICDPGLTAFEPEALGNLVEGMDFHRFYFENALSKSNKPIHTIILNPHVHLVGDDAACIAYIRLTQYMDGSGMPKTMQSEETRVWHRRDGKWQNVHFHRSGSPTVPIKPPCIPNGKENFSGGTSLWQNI

[7] = target: Serine/threonine-protein kinase PAK 4 (Homo sapiens, UniProt O96013)
Chain of Serine/threonine-protein kinase PAK 4 (O96013 whole entry): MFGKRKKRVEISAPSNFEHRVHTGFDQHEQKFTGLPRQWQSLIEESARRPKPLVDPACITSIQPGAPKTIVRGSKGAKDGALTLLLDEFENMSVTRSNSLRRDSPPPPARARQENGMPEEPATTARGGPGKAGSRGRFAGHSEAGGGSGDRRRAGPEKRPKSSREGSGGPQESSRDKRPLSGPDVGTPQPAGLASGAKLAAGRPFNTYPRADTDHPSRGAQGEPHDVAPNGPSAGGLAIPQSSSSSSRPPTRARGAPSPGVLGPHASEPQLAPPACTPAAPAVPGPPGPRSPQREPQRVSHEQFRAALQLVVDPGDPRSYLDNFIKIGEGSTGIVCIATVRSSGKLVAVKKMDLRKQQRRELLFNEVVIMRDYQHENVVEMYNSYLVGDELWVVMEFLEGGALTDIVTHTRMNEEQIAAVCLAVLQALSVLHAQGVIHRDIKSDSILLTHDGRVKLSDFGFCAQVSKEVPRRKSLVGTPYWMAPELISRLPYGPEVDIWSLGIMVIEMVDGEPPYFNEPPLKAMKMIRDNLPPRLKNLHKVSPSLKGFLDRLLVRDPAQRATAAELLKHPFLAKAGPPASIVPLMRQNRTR

[8] = target: cAMP-dependent protein kinase catalytic subunit beta (Homo sapiens, UniProt P22694)
[9] = target: T2, Serine/threonine-protein kinase 4 (Homo sapiens, UniProt Q13043)
T2 sequence (Q13043 whole entry): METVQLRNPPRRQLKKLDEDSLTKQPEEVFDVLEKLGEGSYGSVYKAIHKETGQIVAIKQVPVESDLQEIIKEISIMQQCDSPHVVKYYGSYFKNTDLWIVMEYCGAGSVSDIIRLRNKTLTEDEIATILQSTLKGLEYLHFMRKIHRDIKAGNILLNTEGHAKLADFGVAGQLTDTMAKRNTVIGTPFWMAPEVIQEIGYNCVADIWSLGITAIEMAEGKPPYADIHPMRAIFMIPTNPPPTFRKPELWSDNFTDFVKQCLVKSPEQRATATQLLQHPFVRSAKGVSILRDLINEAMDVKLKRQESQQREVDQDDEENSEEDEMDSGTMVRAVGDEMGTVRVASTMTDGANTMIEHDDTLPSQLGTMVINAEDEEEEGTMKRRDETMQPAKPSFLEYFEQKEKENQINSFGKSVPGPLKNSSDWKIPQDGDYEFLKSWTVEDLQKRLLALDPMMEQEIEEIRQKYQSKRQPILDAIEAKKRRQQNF

[10] = target: T3, Discoidin domain-containing receptor 2 (Homo sapiens, UniProt Q16832)
T3 sequence (Q16832 whole entry): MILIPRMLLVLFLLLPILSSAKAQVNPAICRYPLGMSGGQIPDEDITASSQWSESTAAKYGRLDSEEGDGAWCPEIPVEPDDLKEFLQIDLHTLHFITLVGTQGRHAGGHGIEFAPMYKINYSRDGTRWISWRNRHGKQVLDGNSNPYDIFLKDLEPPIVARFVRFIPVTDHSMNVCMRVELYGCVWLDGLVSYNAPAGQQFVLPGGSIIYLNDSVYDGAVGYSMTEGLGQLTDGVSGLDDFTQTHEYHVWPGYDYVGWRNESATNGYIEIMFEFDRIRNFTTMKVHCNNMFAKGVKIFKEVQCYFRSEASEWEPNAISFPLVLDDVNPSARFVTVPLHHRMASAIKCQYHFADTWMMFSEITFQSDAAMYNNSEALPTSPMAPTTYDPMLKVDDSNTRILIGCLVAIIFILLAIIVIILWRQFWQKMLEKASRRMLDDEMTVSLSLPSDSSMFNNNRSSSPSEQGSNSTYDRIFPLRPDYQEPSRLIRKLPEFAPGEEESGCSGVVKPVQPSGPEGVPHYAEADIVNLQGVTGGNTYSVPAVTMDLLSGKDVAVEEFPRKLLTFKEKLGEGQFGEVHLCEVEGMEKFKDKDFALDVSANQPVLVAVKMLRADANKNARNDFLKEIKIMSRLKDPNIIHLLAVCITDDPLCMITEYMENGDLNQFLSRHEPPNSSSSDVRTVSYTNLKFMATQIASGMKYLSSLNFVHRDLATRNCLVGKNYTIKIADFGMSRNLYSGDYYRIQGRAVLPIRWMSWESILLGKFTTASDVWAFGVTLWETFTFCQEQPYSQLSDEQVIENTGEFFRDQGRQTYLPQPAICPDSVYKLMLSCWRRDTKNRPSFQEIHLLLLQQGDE
Also: in the data inactive means no Kd found up to 30 µM.

Chain of Rho-associated protein kinase 2 (O75116 whole entry): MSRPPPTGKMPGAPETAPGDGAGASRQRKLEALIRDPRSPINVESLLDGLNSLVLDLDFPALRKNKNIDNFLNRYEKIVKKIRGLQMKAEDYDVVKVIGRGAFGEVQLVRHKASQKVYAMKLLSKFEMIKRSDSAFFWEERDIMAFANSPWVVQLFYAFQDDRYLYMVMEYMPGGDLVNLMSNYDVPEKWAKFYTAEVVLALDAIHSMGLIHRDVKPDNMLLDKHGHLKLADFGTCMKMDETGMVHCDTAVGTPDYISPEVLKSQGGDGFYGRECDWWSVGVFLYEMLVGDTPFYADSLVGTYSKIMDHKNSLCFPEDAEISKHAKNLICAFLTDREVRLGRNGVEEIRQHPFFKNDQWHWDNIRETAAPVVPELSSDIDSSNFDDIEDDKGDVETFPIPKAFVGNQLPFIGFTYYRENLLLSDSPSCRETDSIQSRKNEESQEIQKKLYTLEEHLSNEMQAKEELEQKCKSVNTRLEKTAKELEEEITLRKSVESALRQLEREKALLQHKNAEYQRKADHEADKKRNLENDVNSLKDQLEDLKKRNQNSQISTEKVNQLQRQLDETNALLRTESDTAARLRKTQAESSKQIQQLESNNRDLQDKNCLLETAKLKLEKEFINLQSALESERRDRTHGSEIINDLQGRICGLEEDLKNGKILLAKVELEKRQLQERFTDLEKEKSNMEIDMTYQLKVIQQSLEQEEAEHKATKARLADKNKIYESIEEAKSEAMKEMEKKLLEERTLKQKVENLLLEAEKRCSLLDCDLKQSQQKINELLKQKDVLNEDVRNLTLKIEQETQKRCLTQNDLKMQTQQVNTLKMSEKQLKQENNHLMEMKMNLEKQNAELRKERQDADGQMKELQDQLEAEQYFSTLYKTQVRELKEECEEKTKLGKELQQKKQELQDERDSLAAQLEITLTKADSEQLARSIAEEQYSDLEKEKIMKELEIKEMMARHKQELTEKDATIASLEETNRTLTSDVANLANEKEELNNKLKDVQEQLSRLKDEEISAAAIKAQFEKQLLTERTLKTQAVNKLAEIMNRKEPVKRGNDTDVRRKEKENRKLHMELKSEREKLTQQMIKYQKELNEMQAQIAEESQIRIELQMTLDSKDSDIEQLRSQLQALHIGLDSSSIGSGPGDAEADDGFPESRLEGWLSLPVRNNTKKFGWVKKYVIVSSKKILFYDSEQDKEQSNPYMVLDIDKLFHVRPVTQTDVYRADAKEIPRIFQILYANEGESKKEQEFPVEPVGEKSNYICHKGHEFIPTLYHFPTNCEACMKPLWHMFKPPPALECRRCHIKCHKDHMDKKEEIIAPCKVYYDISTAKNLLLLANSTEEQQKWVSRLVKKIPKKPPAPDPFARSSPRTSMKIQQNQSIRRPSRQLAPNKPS

| Structure (SMILES) | Kd [1] | Kd [2] | Kd [3] | Kd [4] | Kd [5] | Kd [6] | Kd [7] | Kd [8] | Kd [9] | Kd [10] |
| --- | --- | --- | --- | --- | --- | --- | --- | --- | --- | --- |
| CCNC(=O)C#Cc1ccc2c(c1)NC(=O)/C2=C(\Nc1ccc(CN(C)C)cc1)c1ccccc1 | > 30 µM (inactive) | > 30 µM (inactive) | 0.227 µM (active) | 0.115 µM (active) | > 30 µM (inactive) | > 30 µM (inactive) | > 30 µM (inactive) | > 30 µM (inactive) | 1.26 µM (active) | – |
| COc1cc(Nc2ncc3c(n2)-c2ccc(Cl)cc2C(c2c(F)cccc2OC)=NC3)ccc1C(=O)O [ALISERTIB] | – | – | – | > 30 µM (inactive) | > 30 µM (inactive) | – | – | > 30 µM (inactive) | > 30 µM (inactive) | > 30 µM (inactive) |
| O=C(Nc1c[nH]nc1-c1nc2cc(CN3CCOCC3)ccc2[nH]1)NC1CC1 [AT-9283] | > 30 µM (inactive) | – | – | 0.89 µM (active) | > 30 µM (inactive) | > 30 µM (inactive) | – | 0.927 µM (active) | > 30 µM (inactive) | > 30 µM (inactive) |
| COc1cc2ncnc(Oc3cccc(NC(=O)Nc4cc(C(C)(C)C(F)(F)F)on4)c3)c2cc1OC [CEP-32496] | > 30 µM (inactive) | > 30 µM (inactive) | – | – | > 30 µM (inactive) | > 30 µM (inactive) | > 30 µM (inactive) | > 30 µM (inactive) | > 30 µM (inactive) | 0.183 µM (active) |
| Cc1cc(Nc2ncc(Cl)c(Nc3ccccc3S(=O)(=O)C(C)C)n2)c(OC(C)C)cc1C1CCNCC1 [CERITINIB] | > 30 µM (inactive) | > 30 µM (inactive) | – | > 30 µM (inactive) | > 30 µM (inactive) | > 30 µM (inactive) | > 30 µM (inactive) | > 30 µM (inactive) | > 30 µM (inactive) | > 30 µM (inactive) |
| C#Cc1cccc(Nc2ncnc3cc(OC)c(OCCCCCCC(=O)NO)cc23)c1 [CUDC-101] | > 30 µM (inactive) | > 30 µM (inactive) | – | > 30 µM (inactive) | > 30 µM (inactive) | > 30 µM (inactive) | > 30 µM (inactive) | > 30 µM (inactive) | > 30 µM (inactive) | > 30 µM (inactive) |
| CC(C)(C)c1nc(-c2cccc(NS(=O)(=O)c3c(F)cccc3F)c2F)c(-c2ccnc(N)n2)s1 [DABRAFENIB] | > 30 µM (inactive) | 0.12 µM (active) | – | 0.783 µM (active) | > 30 µM (inactive) | > 30 µM (inactive) | > 30 µM (inactive) | – | > 30 µM (inactive) | > 30 µM (inactive) |
| CNC(=O)c1nn(C)c2c1C(C)(C)Cc1cnc(Nc3ccc(N4CCN(C)CC4)cc3)nc1-2 [MILCICLIB] | > 30 µM (inactive) | 0.135 µM (active) | 1.32 µM (active) | – | > 30 µM (inactive) | > 30 µM (inactive) | > 30 µM (inactive) | > 30 µM (inactive) | > 30 µM (inactive) | 4.29 µM (active) |
| CN(C[C@@H]1COCCO1)S(=O)(=O)Nc1ccc2ccc3ncc(-c4cnn(C)c4)cc3c(=O)c2c1 [MK-2461] | > 30 µM (inactive) | > 30 µM (inactive) | – | > 30 µM (inactive) | > 30 µM (inactive) | > 30 µM (inactive) | > 30 µM (inactive) | > 30 µM (inactive) | > 30 µM (inactive) | > 30 µM (inactive) |
| CCOc1cc2ncc(C#N)c(Nc3ccc(F)c(Cl)c3)c2cc1NC(=O)/C=C/CN(C)C [PELITINIB] | > 30 µM (inactive) | > 30 µM (inactive) | > 30 µM (inactive) | – | > 30 µM (inactive) | > 30 µM (inactive) | > 30 µM (inactive) | > 30 µM (inactive) | – | > 30 µM (inactive) |
| CNC(=O)c1cc(Oc2ccc(NC(=O)Nc3cc(C(C)(C)C)nn3-c3ccc4ncccc4c3)c(F)c2)ccn1 [REBASTINIB] | > 30 µM (inactive) | > 30 µM (inactive) | – | – | > 30 µM (inactive) | > 30 µM (inactive) | > 30 µM (inactive) | > 30 µM (inactive) | – | – |
| CN1CCN(CCOc2cc(OC3CCOCC3)c3c(Nc4c(Cl)ccc5c4OCO5)ncnc3c2)CC1 [SARACATINIB] | > 30 µM (inactive) | > 30 µM (inactive) | 0.178 µM | – | > 30 µM (inactive) | > 30 µM (inactive) | > 30 µM (inactive) | > 30 µM (inactive) | > 30 µM (inactive) | – |

Results, then the molecule that gave them:

| Kd [1] | Kd [2] | Kd [3] | Kd [4] | Kd [5] | Kd [6] | Kd [7] | Kd [8] | Kd [9] | Kd [10] | Structure (SMILES) |
| --- | --- | --- | --- | --- | --- | --- | --- | --- | --- | --- |
| – | – | – | – | > 30 µM (inactive) | – | – | > 30 µM (inactive) | – | > 30 µM (inactive) | Cc1[nH]c(/C=C2\C(=O)Nc3ccccc32)c(C)c1CCC(=O)O [ORANTINIB] |
| – | – | – | – | > 30 µM (inactive) | – | – | – | > 30 µM (inactive) | 0.669 µM (active) | NC(=O)c1c(OCc2c(F)cc(Br)cc2F)nsc1NC(=O)NCCCCN1CCCC1 [OSI-632] |
| > 30 µM (inactive) | 0.268 µM (active) | 0.728 µM (active) | > 30 µM (inactive) | > 30 µM (inactive) | – | – | – | 4.32 µM (active) | > 30 µM (inactive) | Cc1nc(Nc2n[nH]c3c2CN(C(=O)N[C@H](CN(C)C)c2ccccc2)C3(C)C)c2sccc2n1 [PF-03758309] |
| – | – | – | – | > 30 µM (inactive) | – | – | > 30 µM (inactive) | 0.828 µM (active) | > 30 µM (inactive) | CC(=O)NCC(=O)N1[C@@H]2CC[C@H]1c1ccc(Nc3ncc(C(F)(F)F)c(NC4CCC4)n3)cc12 [PF-03814735] |
| > 30 µM (inactive) | > 30 µM (inactive) | 0.111 µM (active) | 0.105 µM (active) | > 30 µM (inactive) | > 30 µM (inactive) | > 30 µM (inactive) | > 30 µM (inactive) | – | – | CCS(=O)(=O)c1cccc(-c2cc(C(=O)NC3CCN(C)CC3)c(C)c3[nH]c4ncc(C)cc4c23)c1 [TAK-901] |
| > 30 µM (inactive) | 1.86 µM (active) | 0.009 µM (active) | 0.166 µM (active) | > 30 µM (inactive) | > 30 µM (inactive) | 50.4 µM | > 30 µM (inactive) | – | 4.96 µM (active) | CC(C)c1cc(CNc2nc(Nc3cc(C4CC4)[nH]n3)cc(N3CCN(C)CC3)n2)on1 [XL-228] |
| – | – | > 30 µM (inactive) | > 30 µM (inactive) | 0.034 µM (active) | > 30 µM (inactive) | > 30 µM (inactive) | > 30 µM (inactive) | > 30 µM (inactive) | > 30 µM (inactive) | C[C@@H](N)c1ccc(C(=O)Nc2ccnc3[nH]ccc23)cc1 [Y-39983] |
